From patent US11001591B2, “TRAF 6 inhibitors” (HELMHOLTZ ZENTRUM MUENCHEN—DEUTSCHES FORSCHUNGSZENTRUM FÜR …, priority 2016, dated 2021)

Columns and labels:
CYP450 = CYP450 inhibition; type: in vitro ADME
Description: (§1) All ADME (plasma stability, plasma protein binding, microsomal stability, Log D, Caco-2 assay, CYP450 inhibition and hERG predictor assay) as well as pharmacokinetic studies (Tmax, Cmax, AUC0-240 min, Mean Residence Time, Elimination half life, Elimination rate constant, Volume of Distribution and Clearance) of C25-140 (compound 3) were conducted by Bienta Enamine Biology Services of Bienta/Enamine Ltd.

Plasma stability = type: in vitro ADME
Description: as §1

MDM2 = target: T1, MDM2 (Homo sapiens, UniProt Q00987); assay: In vitro ubiquitination assay, MDM2; type: biochemical; conditions: K48 chain formation
T1 construct: purchased Boston Biochem one of K-102, K-260, K-200B, K-220, K-240, K-270
Description: (§2) For analysis of clAP1, MDM2, TRIM63, RNF4, ITCH and E6AP mediated poly-ubiquitination, the respective ubiquitin ligase kit from Boston Biochem (K-102, K-260, K-200B, K-220, K-240 and K-270) was used. Here, reaction buffer, E1, E2 and E3 enzyme (and p53 substrate in case of MDM2) were mixed and pre-incubated with compound or DMSO for 5 minutes at room temperature before adding Mg^2+-ATP and mono-ubiquitin for reaction start. Ubiquitination was visualized by Western Blot analyses.

MURF/TRIM63 = target: T2, MURF/TRIM63 (Homo sapiens, UniProt Q969Q1); assay: In vitro ubiquitination assay, MURF/TRIM63; type: biochemical; conditions: K48 chain formation
T2 construct: purchased Boston Biochem one of K-102, K-260, K-200B, K-220, K-240, K-270
Description: as §2

TRAF6 = target: T3, TRAF6 (Homo sapiens, UniProt Q9Y4K3); assay: In vitro ubiquitination assay (Western blot), TRAF6 with Ubc13/Uev1a; type: biochemical
T3 construct: made in house
Description: The ability of TRAF6 to form K63-linked poly-ubiquitin chains in conjunction with Ubc13 was analyzed after compound treatment. Therefore, untagged TRAF6WT and TRAF6D57K, respectively were recombinantly purified. 0.125 μM of TRAF6 protein was pre-incubated with DMSO or compound in a total volume of 100 μL in K63 assay buffer (25 nM Tris-HCl pH 7.6; 250 nM MgCL2; […] creatine phosphate; 0.3 U/mL inorganic pyrophosphatase; 0.3 U/mL creatine phosphokinase) for 30 minutes at room temperature. Small aliquots for input samples were taken. A master mix containing 0.01 μM E1-activating enzyme (UBE1) (Boston Biochem), 0.2 μM E2-conjugating enzyme complex (Ubc13/Uev1a) (Boston Biochem), 1 mM ZnCl2, 2 mM ATP und 4 μM mono-ubiquitin (Boston Biochem) was added to the TRAF6 protein and the reaction mixture was incubated for 120 minutes at 37° C. The reaction was stopped by adding 4×SDS loading buffer and boiling at 95° C. for 5 minutes. The input samples were analyzed using the Pierce Silver Stain Kit (Thermo Fisher Scientific). Ubiquitination was detected in Western Blot analysis using an ubiquitin antibody.

BJAB (GCB DLBCL) = assay: Cell viability in DLBCL, BJAB; type: cell-based; conditions: 30 μM added at day 0, 4 and 8; 9 days
Description: (§3) To determine the effects of C25-140 on MYD88-dependent ABC-DLBCL, we chose the HBL1 (ABC-DLBCL-MYD88 L265P), U2932 (ABC DLBCL-MYD88 wt) and BJAB (GCB DLBCL) cell lines. 1×10^6 cells of each cell line was seeded in 5 ml and treated with 30 μM compound C25-140 (compound 3) or DMSO. The entire experiment was carried out for 9 days. Every day 500 μl were taken and viable cell number was acquired using the ViCEII cell counter (Beckmann Coulter). At days 4 and 8 of the experiment the volume was again adjusted to 5 ml and samples were supplemented with 30 μM compound C25-140 or DMSO. This process was necessary to ensure linear proliferation of DMSO treated cells. All curves of C25-140 treated samples were referred to the corresponding DMSO treated controls.

[1] = test system: Diet-Induced-Obesity (DIO) mice; assay: Diet-Induced-Obesity (DIO) mouse study; type: in vivo; conditions: 7.4 mg/kg IP once daily
Description: For MEF cells, 1.2×10^5 cells per sample were seeded, treated with compound for 6 hours and stimulated with either IL-1β or TNFα for 60 minutes. Jurkat T-cells and primary mouse CD4^+ T-cells were seeded at 2×10^5 cells per sample, also treated with compound for 6 hours and stimulated with PMA/lonomycin for 3 hours. RNA was isolated according to the manufacturer's protocol of the Qiagen RNeasy Kit (MEF cells) or the STRATEC INVITRAP® SPIN UNIVERSAL RNA MINI KIT (Jurkat T-cells). The isolation of mRNA from […] white adipose tissue from DIO mice was performed using TRIzol® Reagent according to manufacturer's instruction. To clear the isolated RNA from genomic DNA, samples (up to 5 μg RNA) were treated with RQ1 RNase-Free DNaseI (Promega) as described in the technical manual. For the reverse transcription of RNA into cDNA, the DNaseI digested RNA samples were processed using the SuperScript III First Strand cDNA Synthesis System (Invitrogen/ThermoFisher Scientific) following the manufacturer's protocol. Thereby, random hexamers provided with the kit were used for reverse transcription. cDNA samples were stored at −20° C. For quantification of cDNA in the samples, the LightCylcer480 (Roche) and the KAPA SYBR FAST qPCR Kit were used. For relative quantification, the ΔΔCp method first described by Pfaffl (Pfaffl, M. W., A new mathematical model for relative quantification in real-time RT-PCR. Nucleic Acids Res, 2001. 29(9): p. e45) was applied. The following primer were used for qRT-PCR:
Mice were fed a high-fat-diet until they reached a body weight of at least 40 g and developed […]. These mice were separated in control group and a group for C25-140 (compound 3) injection. Mice were treated every day with 14 μmol/kg (=7.4 mg/kg) C25-140 intraperitoneally for a period of 20 days. Thereby, C25-140 was dissolved in 2.9% DMSO, 1.5% Tween-80 and 1×PBS. Every day before injection, the body weight and food intake were measured. […]

[2] = test system: HBL1 (ABC-DLBCL-MYD88 L265P); assay: Cell viability in DLBCL, HBL1; type: cell-based; conditions: 30 μM added at day 0, 4 and 8; 9 days
Description: as §3

[3] = test system: MEF, HepG2 and Jurkat cells; assay: Cell viability, CellTiter-Glo 2.0; type: cell-based
Description: For cell viability experiments using the CellTiter-Glo® 2.0 system (Promega), MEF cells (1.2×10^3 cells/well), HepG2 cells (4×10^3 cells/well) and Jurkat T-cells (5×10^3 cells/well) were seeded in 384 well plates. After 18 hours, cells were treated with compounds using the Sciclone G3 automation system. After 6 or 24 hours incubation, the luciferase measurement was performed according to the manufacturer's manual.

Caco-2 layer = assay: Caco-2 assay; type: in vitro ADME
Description: as §1

T1 sequence (Q00987 whole entry): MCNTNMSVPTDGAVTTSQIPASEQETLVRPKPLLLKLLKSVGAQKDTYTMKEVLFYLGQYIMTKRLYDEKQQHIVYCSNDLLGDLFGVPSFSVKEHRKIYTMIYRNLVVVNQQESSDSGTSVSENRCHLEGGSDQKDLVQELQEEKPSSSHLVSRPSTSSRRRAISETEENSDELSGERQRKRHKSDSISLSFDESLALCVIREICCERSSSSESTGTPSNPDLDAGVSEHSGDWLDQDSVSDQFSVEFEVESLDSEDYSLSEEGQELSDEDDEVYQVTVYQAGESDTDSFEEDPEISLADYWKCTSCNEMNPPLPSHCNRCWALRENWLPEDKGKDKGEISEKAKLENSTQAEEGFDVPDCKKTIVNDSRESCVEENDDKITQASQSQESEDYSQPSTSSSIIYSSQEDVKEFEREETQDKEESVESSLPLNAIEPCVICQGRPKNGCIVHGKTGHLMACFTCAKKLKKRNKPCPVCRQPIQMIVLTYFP
T2 sequence (Q969Q1 whole entry): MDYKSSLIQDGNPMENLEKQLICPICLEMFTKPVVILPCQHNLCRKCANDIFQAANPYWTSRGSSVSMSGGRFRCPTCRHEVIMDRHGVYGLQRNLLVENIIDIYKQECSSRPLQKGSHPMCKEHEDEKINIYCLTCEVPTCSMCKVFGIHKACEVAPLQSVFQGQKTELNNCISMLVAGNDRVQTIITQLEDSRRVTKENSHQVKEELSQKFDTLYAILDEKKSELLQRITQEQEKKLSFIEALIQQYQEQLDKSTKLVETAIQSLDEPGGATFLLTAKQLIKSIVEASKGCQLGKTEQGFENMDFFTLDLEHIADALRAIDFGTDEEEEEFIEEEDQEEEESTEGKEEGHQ
T3 sequence (Q9Y4K3 50-159 limits assumed, species assumed): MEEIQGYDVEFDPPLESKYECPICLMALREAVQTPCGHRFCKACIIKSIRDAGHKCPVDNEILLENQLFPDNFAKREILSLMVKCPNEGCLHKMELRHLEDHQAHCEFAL

SMILES: Cc1nn(-c2ccc3nnc(C)n3n2)c(C)c1CCC(=O)N1CCC(Cc2ccccc2)CC1 [Compound 3, 1-(4-benzylpiperidin-1-yl)-3-(3,5-dimethyl-1-(3-methyl-[1,2,4]triazolo[4,3-b]pyridazin-6-yl)-1H-pyrazol-4-yl)propan-1-one]
- CYP450 inhibition (CYP450): some inhibitory potential on selected CYPs
- plasma stability (Plasma stability): stable
- p53 ubiquitination by MDM2 (MDM2): not affected
- S5A ubiquitination by MURF/TRIM63 (MURF/TRIM63): not affected
- TRAF6 E3 ligase activity to form poly-ubiquitin chains (TRAF6): dose-dependently diminished
- viability (cell count) (BJAB (GCB DLBCL)): did not show any difference
- body weight gain under high-fat-diet ([1]; 20 days): hardly increased body weight
- food intake ([1]; 20 days, vs vehicle): did not differ
- IL-1β and VCAM mRNA in adipose tissue ([1]; day 20): significantly reduced
- viability (cell count) [2]: significantly reduced
- cell viability at highest dose ([3]; 100 μM, 24 hours): toxicity is noticeable
- metabolic activity and cell viability ([3]; up to 50 μM, 24 hours incubation, MEF, HepG2, Jurkat): does not considerably affect
- Caco-2 permeability (Caco-2 layer): good penetration
